Counter-ions that a name gives are not always drawn.

For one assay, the system named is P. Falciparum NF54. Description: Plasmodium falciparum in vitro assay ([3H]-hypoxanthine incorporation). Format: cell-based. The settings on record: P. Falciparum NF54, erythrocytic stages in human red blood cells, 50% human serum. In a few lines:
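This in vitro antimalarial assay used P. falciparum erythrocytic stages cultured in human erythrocytes and measured [3H]-hypoxanthine incorporation. Radioactivity on the dried filters, placed in plastic foil with 10 mL scintillation fluid, was counted in a Betaplate liquid scintillation counter. Sigmoidal inhibition curves built in Microsoft Excel gave the IC50.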
Broadly, the IC50 is the point on the concentration scale where inhibition reaches its midpoint. High values mean weaker potency, low ones greater potency. `CN1CCC(N2C[C@H]3CC(N(Cc4ccc(N(C)c5ccncc5)cc4)C(=O)/C=C/c4ccc(C(F)(F)F)cc4)C[C@H]3C2)CC1` (single isomer, unassigned) [Example 64] returned an IC50 of 0.012 µM.

The assay is the same for the next values; noted with them: Plasmodium falciparum, Erythrocyte, P. Falciparum NF54, erythrocytic stages in human red blood cells, 50% human serum.
Turning to `Cc1cc(Nc2ccc(CN(C(=O)/C=C/c3ccc(C(F)(F)F)cc3)C3CCN(C)CC3)cc2)ccn1` [Example 174, (E)-N-(1-Methyl-piperidin-4-yl)-N-[4-(2-methyl-pyridin-4-ylamino)-benzyl]-3-(4-trifluoromethyl-phenyl)-acrylamide], the IC50 came out at 0.067 µM.

The molecule `CN1CCC(N2CCC[C@@H](N(Cc3ccc(N(C)c4ccncc4)cc3)C(=O)/C=C/c3ccc(C(F)(F)F)cc3)C2)CC1` [Example 56, (R,E)-N-(4-(methyl(pyridin-4-yl)amino)benzyl)-N-(1′-methyl-[1,4′-bipiperidin]-3-yl)-3-(4-(trifluoromethyl)phenyl)acrylamide] gave an IC50 of 0.011 µM.

For the molecule `CCc1ccc(/C=C/C(=O)N(Cc2ccc(N(C)c3ccncc3)cc2)C2CCN(Cc3ccccc3)CC2)cc1` [Example 147, (E)-N-(1-Benzyl-piperidin-4-yl)-3-(4-ethyl-phenyl)-N-[4-(methyl-pyridin-4-yl-amino)-benzyl]-acrylamide], the IC50 is 0.157 µM.

Turning to `Cc1cc(Nc2ccc(CN(CCCN(C)C)C(=O)/C=C/c3ccc(C(F)(F)F)cc3)cc2)ccn1` [Example 166, (E)-N-(3-Dimethylamino-propyl)-N-[4-(2-methyl-pyridin-4-ylamino)-benzyl]-3-(4-trifluoromethyl-phenyl)-acrylamide], the half-maximal inhibitory concentration (IC50) came out at 0.068 µM.

As to `Cc1cc(Nc2ccc(CN(C(=O)/C=C/c3ccc(Cl)cc3)C3CCN(C4CCCC4)CC3)cn2)ccn1` [Example 169, (E)-3-(4-Chloro-phenyl)-N-(1-cyclopentyl-piperidin-4-yl)-N-[6-(2-methyl-pyridin-4-ylamino)-pyridin-3-ylmethyl]-acrylamide], it took 0.134 µM to reach half-maximal inhibition (IC50).

In the case of `Cc1ccccc1/C=C/C(=O)N(Cc1ccc(N(C)c2ccncc2)cc1)C1CCN(Cc2ccccc2)CC1` [Example 160, (E)-N-(1-Benzyl-piperidin-4-yl)-N-[4-(methyl-pyridin-4-yl-amino)-benzyl]-3-o-tolyl-acrylamide], the IC50 came out at 0.167 µM.

As to `CN1CCC(N2CCCC(N(Cc3ccc(N(C)c4ccncc4)cc3)C(=O)/C=C/c3ccc(C(F)(F)F)cc3)CC2)CC1` (racemic) [Example 57, (±)-(E)-N-(4-(methyl(pyridin-4-yl)amino)benzyl)-N-(1-(1-methylpiperidin-4-yl)azepan-4-yl)-3-(4-(trifluoromethyl)phenyl)acrylamide], half-maximal inhibition (IC50) required 0.018 µM.

`Cc1cc(N(C)c2cccc(CN(C(=O)/C=C/c3ccc(C(F)(F)F)cc3)C3CCN(C(C)C)CC3)c2)ccn1` [Example 121, (E)-N-(1-Isopropyl-piperidin-4-yl)-N-{3-[methyl-(2-methyl-pyridin-4-yl)-amino]-benzyl}-3-(4-trifluoromethyl-phenyl)-acrylamide formate] showed an IC50 of 0.076 µM.

With `CC(C)N1CCC(N(Cc2cncc(N(C)c3cccnc3)c2)C(=O)/C=C/c2ccc(C(F)(F)F)cc2)CC1` [Example 134, (E)-N-(1-Isopropyl-piperidin-4-yl)-N-[5-(methyl-pyridin-3-yl-amino)-pyridin-3-ylmethyl]-3-(4-trifluoromethyl-phenyl)-acrylamide formate], it took 0.213 µM to reach half-maximal inhibition (IC50).

Regarding `CC(C)N1CCC(N(Cc2cccc(N(C)c3ccncc3)n2)C(=O)/C=C/c2ccc(C(F)(F)F)cc2)CC1` [Example 127, (E)-N-(1-Isopropyl-piperidin-4-yl)-N-[6-(methyl-pyridin-4-yl-amino)-pyridin-2-ylmethyl]-3-(4-trifluoromethyl-phenyl)-acrylamide formate], half-maximal inhibition (IC50) was put at 0.184 µM.

Consider `CN(c1ccncc1)c1ccc(CN(C(=O)/C=C/c2ccc(C(F)(F)F)cc2)C2CCN(CCC(F)(F)F)CC2)cc1` [Example 16, (E)-N-[4-(Methyl-pyridin-4-yl-amino)-benzyl]-3-(4-trifluoromethyl-phenyl)-N-[1-(3,3,3-trifluoro-propyl)-piperidin-4-yl]-acrylamide], for which it took 0.154 µM to reach half-maximal inhibition (IC50).

The molecule `Cc1cc(Oc2ccc(CN(C(=O)/C=C/c3ccc(C(F)(F)F)cc3)C3CCN(C4CCCC4)CC3)cc2)cc(C)n1` [Example 208, (E)-N-(1-Cyclopentyl-piperidin-4-yl)-N-[4-(2,6-dimethyl-pyridin-4-yloxy)-benzyl]-3-(4-trifluoromethyl-phenyl)-acrylamide] came in with an IC50 of 0.082 µM.

Take `Cc1cc(Nc2ccc(CN(C(=O)/C=C/c3ccc(C(F)(F)F)cc3)C3CCN(Cc4cnc(C)n4C)CC3)cc2)ccn1` [Example 52, (E)-N-[1-(2,3-Dimethyl-3H-imidazol-4-ylmethyl)-piperidin-4-yl]-N-[4-(2-methyl-pyridin-4-ylamino)-benzyl]-3-(4-trifluoromethyl-phenyl)-acrylamide]: the IC50 is 0.143 µM.

The molecule `CN(c1ccncc1)c1ccc(CN(C(=O)/C=C/c2ccc(C(F)(F)F)cc2)C2CCN(Cc3ccnn3C)CC2)cc1` [Example 17, (E)-N-[1-(2-Methyl-2H-pyrazol-3-ylmethyl)-piperidin-4-yl]-N-[4-(methyl-pyridin-4-yl-amino)-benzyl]-3-(4-trifluoromethyl-phenyl)-acrylamide] yielded an IC50 of 0.18 µM.

For `CN1CCC(N2CCC(N(Cc3ccc(N(C)c4ccncc4)cc3)C(=O)/C=C/c3ccc(C(F)(F)F)cc3)CC2)CC1` [Example 26, (E)-N-(1′-Methyl-[1,4′]bipiperidinyl-4-yl)-N-[4-(methyl-pyridin-4-yl-amino)-benzyl]-3-(4-trifluoromethyl-phenyl)-acrylamide], the half-inhibitory concentration (IC50) is 0.014 µM.

Regarding `CN1CCC(N2CCC(N(Cc3ccc(Nc4ccncc4)cc3)C(=O)/C=C/c3ccc(OC(F)(F)F)cc3)CC2)CC1` [Example 118, (E)-N-(1′-Methyl-[1,4′]bipiperidinyl-4-yl)-N-[4-(pyridin-4-ylamino)-benzyl]-3-(4-trifluoromethoxy-phenyl)-acrylamide], the IC50 worked out at 0.083 µM.

In turn, `Cc1cc(Nc2ccc(CN(CC3CCN(C4CCN(C)CC4)CC3)C(=O)/C=C/c3ccc(C(F)(F)F)cc3)cc2)ccn1` [Example 172, (E)-N-(1′-Methyl-[1,4′]bipiperidinyl-4-ylmethyl)-N-[4-(2-methyl-pyridin-4-ylamino)-benzyl]-3-(4-trifluoromethyl-phenyl)-acrylamide] yielded an IC50 of 0.178 µM.

`Cc1cc(Nc2ccc(CN(C(=O)/C=C/c3ccc(C(F)(F)F)cc3)C3CCN(CC4CC4)CC3)cc2)ccn1` [Example 31, (E)-N-(1-Cyclopropylmethyl-piperidin-4-yl)-N-[4-(2-methyl-pyridin-4-ylamino)-benzyl]-3-(4-trifluoromethyl-phenyl)-acrylamide] displayed an IC50 of 0.039 µM.

The molecule `CN(c1ccc(CN(C(=O)/C=C/c2ccc(C(F)(F)F)cc2)C2CCN(C3CCCC3)CC2)cc1)c1cccnc1` [Example 96, (E)-N-(1-Cyclopentyl-piperidin-4-yl)-N-[4-(methyl-pyridin-3-yl-amino)-benzyl]-3-(4-trifluoromethyl-phenyl)-acrylamide] gave an IC50 of 0.351 µM.

In turn, `O=C(/C=C/c1ccc(C(F)(F)F)cc1)N(Cc1ccc(Nc2ccnc3cc(Cl)ccc23)cc1)C1CCN(C2CCCC2)CC1` [Example 97, (E)-N-[4-(7-Chloro-quinolin-4-ylamino)-benzyl]-N-(1-cyclopentyl-piperidin-4-yl)-3-(4-trifluoromethyl-phenyl)-acrylamide] displayed an IC50 of 0.12 µM.
